Data: paper PMC3477287 (ACS chemical biology, 2012)

Target: MbtA (Mycobacterium tuberculosis, UniProt P71716)
Test: […]
Type: biochemical

Sequence of MbtA (P71716 whole entry): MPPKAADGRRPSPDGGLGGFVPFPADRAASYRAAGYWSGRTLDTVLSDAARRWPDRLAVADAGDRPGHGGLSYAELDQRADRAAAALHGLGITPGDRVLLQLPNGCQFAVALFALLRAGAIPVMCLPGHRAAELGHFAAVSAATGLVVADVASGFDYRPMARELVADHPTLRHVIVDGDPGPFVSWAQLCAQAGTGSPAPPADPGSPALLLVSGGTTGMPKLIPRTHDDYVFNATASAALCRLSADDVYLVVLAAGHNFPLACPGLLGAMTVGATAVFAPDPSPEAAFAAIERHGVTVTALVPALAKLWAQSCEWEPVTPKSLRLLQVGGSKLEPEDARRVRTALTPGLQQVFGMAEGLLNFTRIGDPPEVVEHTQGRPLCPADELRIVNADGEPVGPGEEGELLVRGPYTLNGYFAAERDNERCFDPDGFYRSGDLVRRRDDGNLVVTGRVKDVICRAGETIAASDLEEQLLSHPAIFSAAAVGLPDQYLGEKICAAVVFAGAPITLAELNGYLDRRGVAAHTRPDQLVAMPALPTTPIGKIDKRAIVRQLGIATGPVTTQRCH

With Sal-AMS ABP [compound 6] the Ki was 0.94 nM.
